Assay [1] deals with BaF3. As to the kind of experiment: Cytotoxicity against mouse BAF3 cells incubated for 72 hrs by resazurin dye based assay. The assay is classed as cell-based. The conditions noted are these: BaF3, 72 h. (In general: Alamar Blue is a resazurin reagent that responds to reducing activity.)
Assay [2] relates to Epidermal growth factor receptor (Homo sapiens), P00533 [L858R,T790M,C797S]. As to the kind of experiment: (§1) Inhibition of recombinant human C-terminal His-tagged/N-terminal GST-tagged EGFR (668 to 1210 residues) T790M/L858R/C797S mutant expressed in baculovirus expression system using poly (Glu,Tyr) 4:1 as substrate incubated for 1 hr in presence of ATP by ELISA. For orientation: An ELISA detects its analyte on a solid surface through an enzyme-linked reagent.
Chain of Epidermal growth factor receptor (Homo sapiens), P00533 [L858R,T790M,C797S] (P00533 whole entry T790M/C797S/L858R, the tested form may be a part): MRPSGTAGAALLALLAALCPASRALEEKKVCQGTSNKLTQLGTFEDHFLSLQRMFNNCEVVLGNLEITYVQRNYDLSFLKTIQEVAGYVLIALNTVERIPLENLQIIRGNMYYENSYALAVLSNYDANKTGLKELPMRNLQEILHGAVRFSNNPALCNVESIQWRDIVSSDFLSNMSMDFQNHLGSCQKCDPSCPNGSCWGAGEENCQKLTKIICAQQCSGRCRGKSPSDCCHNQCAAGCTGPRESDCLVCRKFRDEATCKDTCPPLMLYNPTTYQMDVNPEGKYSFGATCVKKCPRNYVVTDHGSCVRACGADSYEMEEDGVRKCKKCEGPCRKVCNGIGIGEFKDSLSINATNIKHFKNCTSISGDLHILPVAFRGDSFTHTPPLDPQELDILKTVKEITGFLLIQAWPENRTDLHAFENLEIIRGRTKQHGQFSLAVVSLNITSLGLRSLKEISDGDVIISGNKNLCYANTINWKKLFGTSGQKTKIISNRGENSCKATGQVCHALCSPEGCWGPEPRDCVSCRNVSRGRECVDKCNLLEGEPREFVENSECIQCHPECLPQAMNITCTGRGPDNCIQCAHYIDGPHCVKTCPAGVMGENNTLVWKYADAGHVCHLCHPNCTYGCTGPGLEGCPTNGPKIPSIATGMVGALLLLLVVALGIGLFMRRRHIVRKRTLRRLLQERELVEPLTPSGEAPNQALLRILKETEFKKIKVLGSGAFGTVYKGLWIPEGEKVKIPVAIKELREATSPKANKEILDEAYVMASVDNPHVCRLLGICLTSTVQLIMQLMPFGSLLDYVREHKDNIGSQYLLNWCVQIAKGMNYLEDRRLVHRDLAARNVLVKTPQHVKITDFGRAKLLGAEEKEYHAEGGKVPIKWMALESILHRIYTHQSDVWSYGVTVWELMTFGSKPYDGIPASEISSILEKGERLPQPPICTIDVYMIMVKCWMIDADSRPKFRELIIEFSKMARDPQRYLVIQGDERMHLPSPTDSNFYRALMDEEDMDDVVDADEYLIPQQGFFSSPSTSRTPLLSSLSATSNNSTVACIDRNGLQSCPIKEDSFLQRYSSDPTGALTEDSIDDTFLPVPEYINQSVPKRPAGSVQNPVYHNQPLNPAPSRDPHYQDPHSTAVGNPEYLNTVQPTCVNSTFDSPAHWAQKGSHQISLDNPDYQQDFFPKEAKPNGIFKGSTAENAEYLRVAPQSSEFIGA

In assay [3] the target is Epidermal growth factor receptor (Homo sapiens, UniProt P00533, C797S/L858R/T790M). The description is as §1.
Chain of Epidermal growth factor receptor (P00533 whole entry T790M/C797S/L858R): as the sequence (P00533 whole entry T790M/C797S/L858R, the tested form may be a part) above
The subject of assay [4] is Epidermal growth factor receptor (Homo sapiens), P00533 [L858R,T790M]. As to the kind of experiment: Inhibition of human EGFR T790M/L858R mutant using poly (Glu,Tyr) 4:1 as substrate incubated for 1 hr in presence of ATP by ELISA.
Assay [5] concerns NCI-H1975. Description: Antiproliferative activity human NCI-H1975 cells incubated for 72 hrs by SRB assay. The assay is classed as functional, cell-based. The conditions noted are these: NCI-H1975, 72 h. (Sulforhodamine B stains cellular protein and so reports cell mass.)
In assay [6] the test system is BaF3. As to the kind of experiment: Antiproliferative activity against mouse BAF3 cells transfected with EGFR L858R/T790M/C797S mutant (unknown origin) incubated for 72 hrs by resazurin dye based assay. The assay is classed as functional, cell-based. The conditions noted are these: BaF3, 72 h.
Assay [7] has as its system A-431. Description: Antiproliferative activity human A431 cells incubated for 72 hrs by SRB assay. The assay is classed as functional, cell-based. The conditions noted are these: A-431, 72 h.

As usually defined, the IC50 is the midpoint of a concentration-inhibition curve.

Active and inactive are the calls of the source. The rule behind the calls is not given here.

Chain of Epidermal growth factor receptor (Homo sapiens), P00533 [L858R,T790M] (P00533 whole entry T790M/L858R, looked up): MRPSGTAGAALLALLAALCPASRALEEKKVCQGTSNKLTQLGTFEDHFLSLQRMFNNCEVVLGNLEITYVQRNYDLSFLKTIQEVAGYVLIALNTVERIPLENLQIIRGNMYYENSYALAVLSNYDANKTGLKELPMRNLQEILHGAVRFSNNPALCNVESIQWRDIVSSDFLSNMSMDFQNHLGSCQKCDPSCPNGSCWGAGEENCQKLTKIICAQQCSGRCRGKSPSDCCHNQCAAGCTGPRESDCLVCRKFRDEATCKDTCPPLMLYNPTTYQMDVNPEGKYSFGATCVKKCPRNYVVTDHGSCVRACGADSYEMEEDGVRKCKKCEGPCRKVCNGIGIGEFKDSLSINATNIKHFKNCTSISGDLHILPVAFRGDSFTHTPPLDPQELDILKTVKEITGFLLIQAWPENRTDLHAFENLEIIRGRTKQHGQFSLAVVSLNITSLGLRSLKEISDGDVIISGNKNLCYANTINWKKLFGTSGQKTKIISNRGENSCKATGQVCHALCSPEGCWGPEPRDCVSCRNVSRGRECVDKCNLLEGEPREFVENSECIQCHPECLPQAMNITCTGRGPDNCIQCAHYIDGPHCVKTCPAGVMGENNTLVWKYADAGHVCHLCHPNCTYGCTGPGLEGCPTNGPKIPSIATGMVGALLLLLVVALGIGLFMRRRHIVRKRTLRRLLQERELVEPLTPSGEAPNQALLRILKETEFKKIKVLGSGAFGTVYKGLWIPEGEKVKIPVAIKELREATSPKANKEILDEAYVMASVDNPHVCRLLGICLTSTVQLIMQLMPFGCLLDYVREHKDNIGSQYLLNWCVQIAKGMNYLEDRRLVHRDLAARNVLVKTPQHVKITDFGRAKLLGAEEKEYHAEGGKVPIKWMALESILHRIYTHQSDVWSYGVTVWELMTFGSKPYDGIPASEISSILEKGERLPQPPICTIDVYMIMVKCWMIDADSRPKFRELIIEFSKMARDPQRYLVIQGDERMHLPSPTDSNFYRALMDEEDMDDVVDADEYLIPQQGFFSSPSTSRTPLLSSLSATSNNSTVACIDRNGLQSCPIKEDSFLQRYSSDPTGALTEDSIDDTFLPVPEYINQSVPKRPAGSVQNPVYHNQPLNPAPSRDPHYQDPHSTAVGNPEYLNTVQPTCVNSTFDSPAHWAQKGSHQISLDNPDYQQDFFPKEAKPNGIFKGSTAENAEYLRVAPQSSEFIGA

With `O=C(Nc1nccs1)C(c1cc(F)ccc1O)N1Cc2ccccc2C1=O` (stereo not drawn), in assay [1], the IC50 is > 10000 nM.

In the case of `COc1cc2ncnc(Nc3ccc(NC(=O)C(c4ccccc4)N4Cc5ccccc5C4=O)cc3F)c2cc1OCCCN1CCOCC1` (stereo not drawn), the inhibition entry in assay [2] is “Active”.

Consider `COc1cc2c(Nc3cc(NC(=O)C(c4ccccc4)N4Cc5ccccc5C4=O)ccc3F)ncnc2cc1OCC1CCN(C)CC1` (stereo not drawn), for which, in assay [3], the IC50 came out at 37.1 nM.

As to `COc1cc2nc(N)nc(Nc3ccc(NC(=O)C(c4ccccc4)N4Cc5ccccc5C4=O)cc3F)c2cc1OC` (stereo not drawn), the inhibition entry in assay [4] and in assay [2] was “inactive” throughout.

Take `COc1cc2c(Nc3ccc(NC(=O)CC4Cc5ccccc5C4)cc3F)ncnc2cc1OCC1CCN(C)CC1`: in assay [2], the inhibition entry was “inactive”.

As to `COc1cc2c(Nc3cc(NC(=O)c4ccccc4)ccc3F)ncnc2cc1OCC1CCN(C)CC1`, the inhibition entry in assay [2] was “inactive”.

Turning to `COc1cc2ncnc(Nc3ccc(NC(=O)C(c4ccccc4)N4Cc5ccccc5C4=O)cc3F)c2cc1OC` (stereo not drawn), the inhibition result in assay [2] is “Active”.

`COc1cc(N2CCC(N3CCN(C)CC3)CC2)ccc1Nc1ncc(Cl)c(Nc2ccccc2P(C)(C)=O)n1` [BRIGATINIB] gave an IC50 in assay [1] of 7310 nM.

In the case of `C=CC(=O)Nc1cc(Nc2nccc(-c3cn(C)c4ccccc34)n2)c(OC)cc1N(C)CCN(C)C` [OSIMERTINIB], the IC50 was determined as 5110 nM in assay [1], […] in assay [5], 3930 nM in assay [6] and […] in assay [7].

As for `COc1cc2c(Nc3cc(NC(=O)CC4Cc5ccccc5C4)ccc3F)ncnc2cc1OCC1CCN(C)CC1`, the inhibition entry in assay [2] was “inactive”.

As for `COc1cc2c(Nc3cc(NC(=O)Cc4ccccc4)ccc3F)ncnc2cc1OCC1CCN(C)CC1`, in assay [2], the inhibition entry is “inactive”.

As for `COc1cc2c(Nc3ccc(NC(=O)C(c4ccccc4)c4ccccc4)cc3F)ncnc2cc1OCC1CCN(C)CC1`, in assay [2], the inhibition entry was “inactive”.

Consider `COc1cc2c(Nc3ccc(NC(=O)C(c4ccccc4)C(C)C)cc3F)ncnc2cc1OCC1CCN(C)CC1` (stereo not drawn), for which the inhibition entry in assay [2] was “inactive”.

Turning to `COc1cc2c(Nc3ccc(NC(=O)C(C)c4ccccc4)cc3F)ncnc2cc1OCC1CCN(C)CC1` (stereo not drawn), the inhibition entry in assay [2] is “inactive”.

For the compound `COc1cc2c(Nc3ccc(NC(=O)C(C4CCCCC4)N4Cc5ccccc5C4=O)cc3F)ncnc2cc1OCC1CCN(C)CC1` (stereo not drawn), in assay [3], the IC50 came to 180 nM.

As to `COc1cc2ncnc(Nc3ccc(NC(=O)C(c4ccccc4)N4Cc5ccccc5C4=O)cc3F)c2cc1OCN1CCOCC1` (stereo not drawn), the inhibition entry in assay [2] is “Active”.

`COc1cc2c(Nc3ccc(NC(=O)Cc4ccccc4)cc3F)ncnc2cc1OCC1CCN(C)CC1`: the inhibition result in assay [2] was “inactive”.

For the compound `COc1cc2c(Nc3ccc(NC(=O)C(c4ccccc4)N4Cc5ccccc5C4=O)cc3F)ncnc2cc1OCC1CCN(C)CC1` (stereo not drawn), in assay [3], the IC50 was 9.3 nM.

Take `COc1cc2c(Nc3ccc(NC(=O)c4ccccc4)cc3F)ncnc2cc1OCC1CCN(C)CC1`: the inhibition result in assay [2] was “inactive”.

For the origin of these results see ChEMBL document CHEMBL4396901, “Discovery of Potent and Noncovalent Reversible EGFR Kinase Inhibitors of EGFRL858R/T790M/C797S” (ACS Med Chem Lett, 2019).
